# Laboratory results reported in paper PMC6152724, “Secondary Sulfonamides as Effective Lactoperoxidase Inhibitors” (Molecules : A Journal of Synthetic Chemistry and Natural …, 2017).
# Biological target: T1, LPO purified from bovine milk (Bos taurus, UniProt P80025)
# T1 construct: from tissue; host or cells: fresh bovine milk
# Test: LPO inhibition assay (ABTS oxidation by H2O2, absorbance at 412 nm; Lineweaver–Burk plots)
# Type: biochemical
# Conditions: for IC50: from activity (%)-[inhibitor] regression graphs, ABTS substrate; for Inhibition Type: with respect to ABTS substrate, from Lineweaver–Burk plots
# Experimental: LPO activities were determined by the procedure of Shindler and Bardsley with slight modification. This method is based on the oxidation of chromogenic substrate 2,2′-azino-bis(3-ethylbenzothiazoline-6-sulfonic acid) (ABTS) by hydrogen peroxide (H2O2), which results in a product which had absorbance at 412 nm.
# The effects of secondary sulfonamide derivatives (4a–8h) on LPO purified from fresh bovine milk by affinity chromatography technique were previously determined. In our study, LPO activity was measured in the presence of different concentrations of secondary sulfanilamide derivatives (4a–8h). A control sample without secondary sulfonamide was taken as 100%. An activity (%)-[Secondary sulfonamide] plot was drawn. For the determination of the inhibition constant (Ki) values, three different secondary sulfonamide derivative (4a–8h) concentrations were used. Additionally, ABTS was used as a substrate at five different concentrations. Lineweaver–Burk plots (1/V-1/[ABTS]) were obtained for secondary sulfonamide; the Ki and the inhibition type were calculated from these plots. The data obtained were analysed by t-test and the results are given as Means ± SD.
# [1] = LPO purified from bovine milk, Lineweaver–Burk plots, three inhibitor and five ABTS concentrations, Means ± SD
# [2] = bovine milk LPO, values restated in text in nM
Structure (SMILES),Ki [1] [nM],IC50 (LPO purified from bovine milk) [µM],Inhibition Type,Ki [2] [nM]
"Nc1ccc(S(=O)(=O)Nc2nccs2)cc1 [4a, Sulfathiazole, reference compound]",38400 ± 6060,231,Non-competitive,–
"Nc1ccc(S(=O)(=O)Nc2ncccn2)cc1 [4b, Sulfadiazine, reference compound]",90700 ± 2520,92.2,Non-competitive,–
"Cc1cc(C)nc(NS(=O)(=O)c2ccc(N)cc2)n1 [4c, Sulfamethazine, reference compound]",198000 ± 24500,346,Non-competitive,–
"Nc1ccc(S(=O)(=O)Nc2ccccn2)cc1 [4d, Sulfapyridine, reference compound]",65000 ± 3610,227,Competitive,–
"Cc1noc(NS(=O)(=O)c2ccc(N)cc2)c1C [4e, Sulfisoxazole, reference compound]",183000 ± 34100,222,Non-competitive,–
"Cc1nnc(NS(=O)(=O)c2ccc(N)cc2)s1 [4f, Sulfamethizole, reference compound]",21200 ± 5660,115,Non-competitive,–
"Cc1ccnc(NS(=O)(=O)c2ccc(N)cc2)n1 [4g, Sulfamerazine, reference compound]",20500 ± 2140,18.7,Non-competitive,–
"Nc1ccc(S(N)(=O)=O)cc1 [4h, Sulfanilamide, reference compound]",35700 ± 4880,8.48,Competitive,–
"CC(=O)Oc1ccc(C(=O)Nc2ccc(S(=O)(=O)Nc3nccs3)cc2)cc1 [5a, N-(sulfathiazole)-p-acetoxybenzamide]",56100 ± 23600,99,Non-competitive,–
"CC(=O)Oc1ccc(C(=O)Nc2ccc(S(=O)(=O)Nc3ncccn3)cc2)cc1 [5b, N-(sulfadiazine)-p-acetoxybenzamide]",26 ± 4,0.015,Non-competitive,260
"CC(=O)Oc1ccc(C(=O)Nc2ccc(S(=O)(=O)Nc3nc(C)cc(C)n3)cc2)cc1 [5c, N-(sulfamethazine)-p-acetoxybenzamide]",8 ± 3,0.01,Competitive,80
"CC(=O)Oc1ccc(C(=O)Nc2ccc(S(=O)(=O)Nc3ccccn3)cc2)cc1 [5d, N-(sulfapyridine)-p-acetoxybenzamide]",49100 ± 20000,10,Competitive,–
"CC(=O)Oc1ccc(C(=O)Nc2ccc(S(=O)(=O)Nc3onc(C)c3C)cc2)cc1 [5e, N-(sulfisoxazole)-p-acetoxybenzamide]",934 ± 357,3.03,Competitive,–
"CC(=O)Oc1ccc(C(=O)Nc2ccc(S(=O)(=O)Nc3nnc(C)s3)cc2)cc1 [5f, N-(sulfamethizole)-p-acetoxybenzamide]",324 ± 115,0.238,Non-competitive,–
"CC(=O)Oc1ccc(C(=O)Nc2ccc(S(=O)(=O)Nc3nccc(C)n3)cc2)cc1 [5g, N-(sulfamerazine)-p-acetoxybenzamide]",13400 ± 6190,3.94,Competitive,–
"CC(=O)Oc1ccc(C(=O)Nc2ccc(S(N)(=O)=O)cc2)cc1 [5h, N-(sulfanilamide)-p-acetoxybenzamide]",2290 ± 1020,3.05,Non-competitive,–
"CC(=O)Oc1cc(C(=O)Nc2ccc(S(=O)(=O)Nc3nccs3)cc2)cc(OC(C)=O)c1OC(C)=O [6a, N-(sulfathiazole)-3,4,5-triacetoxybenzamide]",1.1,0.000656,Non-competitive,–
"CC(=O)Oc1cc(C(=O)Nc2ccc(S(=O)(=O)Nc3ncccn3)cc2)cc(OC(C)=O)c1OC(C)=O [6b, N-(sulfadiazine)-3,4,5-triacetoxybenzamide]",2900 ± 1130,13.9,Competitive,–
"CC(=O)Oc1cc(C(=O)Nc2ccc(S(=O)(=O)Nc3nc(C)cc(C)n3)cc2)cc(OC(C)=O)c1OC(C)=O [6c, N-(sulfamethazine)-3,4,5-triacetoxybenzamide]",152000 ± 48700,139,Non-competitive,–
"CC(=O)Oc1cc(C(=O)Nc2ccc(S(=O)(=O)Nc3ccccn3)cc2)cc(OC(C)=O)c1OC(C)=O [6d, N-(sulfapyridine)-3,4,5-triacetoxybenzamide]",1390 ± 150,1.56,Non-competitive,–
"CC(=O)Oc1cc(C(=O)Nc2ccc(S(=O)(=O)Nc3onc(C)c3C)cc2)cc(OC(C)=O)c1OC(C)=O [6e, N-(sulfisoxazole)-3,4,5-triacetoxybenzamide]",1070 ± 20,2.03,Competitive,–
"CC(=O)Oc1cc(C(=O)Nc2ccc(S(=O)(=O)Nc3nnc(C)s3)cc2)cc(OC(C)=O)c1OC(C)=O [6f, N-(sulfamethizole)-3,4,5-triacetoxybenzamide]",8550 ± 1450,6.66,Non-competitive,–
"CC(=O)Oc1cc(C(=O)Nc2ccc(S(=O)(=O)Nc3nccc(C)n3)cc2)cc(OC(C)=O)c1OC(C)=O [6g, N-(sulfamerazine)-3,4,5-triacetoxybenzamide]",1490 ± 280,1.28,Non-competitive,–
"CC(=O)Oc1cc(C(=O)Nc2ccc(S(N)(=O)=O)cc2)cc(OC(C)=O)c1OC(C)=O [6h, N-(sulfanilamide)-3,4,5-triacetoxybenzamide]",2290 ± 980,3.05,Non-competitive,–
"NS(=O)(=O)c1ccc(NC(=O)c2cc(O)c(O)c(O)c2)cc1 [8h, N-(sulfanilamide)-3,4,5-trihydroxybenzamide]",3100 ± 578,1.78,Non-competitive,–

# More lines, main results first:
Ki [1] [nM],IC50 (LPO purified from bovine milk) [µM],Inhibition Type,Structure (SMILES),Ki [2] [nM]
6850 ± 1810,15.1,Non-competitive,"O=C(Nc1ccc(S(=O)(=O)Nc2nccs2)cc1)c1ccc(O)cc1 [7a, N-(sulfathiazole)-p-hydroxybenzamide]",–
44 ± 22,0.04,Noncompetitive,"O=C(Nc1ccc(S(=O)(=O)Nc2ncccn2)cc1)c1ccc(O)cc1 [7b, N-(sulfadiazine)-p-hydroxybenzamide]",–
484 ± 146,0.426,Non-competitive,"Cc1cc(C)nc(NS(=O)(=O)c2ccc(NC(=O)c3ccc(O)cc3)cc2)n1 [7c, N-(sulfamethazine)-p-hydroxybenzamide]",–
1410 ± 130,2.96,Competitive,"O=C(Nc1ccc(S(=O)(=O)Nc2ccccn2)cc1)c1ccc(O)cc1 [7d, N-(sulfapyridine)-p-hydroxybenzamide]",–
15100 ± 3900,10.8,Non-competitive,"Cc1noc(NS(=O)(=O)c2ccc(NC(=O)c3ccc(O)cc3)cc2)c1C [7e, N-(sulfisoxazole)-p-hydroxybenzamide]",–
387 ± 150,0.799,Competitive,"Cc1nnc(NS(=O)(=O)c2ccc(NC(=O)c3ccc(O)cc3)cc2)s1 [7f, N-(sulfamethizole)-p-hydroxybenzamide]",–
3940 ± 1100,1.76,Non-competitive,"Cc1ccnc(NS(=O)(=O)c2ccc(NC(=O)c3ccc(O)cc3)cc2)n1 [7g, N-(sulfamerazine)-p-hydroxybenzamide]",–
217 ± 99,0.285,Non-competitive,"NS(=O)(=O)c1ccc(NC(=O)c2ccc(O)cc2)cc1 [7h, N-(sulfanilamide)-p-hydroxybenzamide]",–
25 ± 10,0.014,Competitive,"O=C(Nc1ccc(S(=O)(=O)Nc2nccs2)cc1)c1cc(O)c(O)c(O)c1 [8a, N-(sulfathiazole)-3,4,5-trihydroxybenzamide]",–
1290 ± 465,0.715,Non-competitive,"O=C(Nc1ccc(S(=O)(=O)Nc2ncccn2)cc1)c1cc(O)c(O)c(O)c1 [8b, N-(sulfadiazine)-3,4,5-trihydroxybenzamide]",–
2170 ± 880,2.53,Competitive,"Cc1cc(C)nc(NS(=O)(=O)c2ccc(NC(=O)c3cc(O)c(O)c(O)c3)cc2)n1 [8c, N-(sulfamethazine)-3,4,5-trihydroxybenzamide]",–
5850 ± 1280,10.2,Competitive,"O=C(Nc1ccc(S(=O)(=O)Nc2ccccn2)cc1)c1cc(O)c(O)c(O)c1 [8d, N-(sulfapyridine)-3,4,5-trihydroxybenzamide]",–
1440 ± 520,1.99,Competitive,"Cc1noc(NS(=O)(=O)c2ccc(NC(=O)c3cc(O)c(O)c(O)c3)cc2)c1C [8e, N-(sulfisoxazole)-3,4,5-trihydroxybenzamide]",–
293000 ± 62000,173,Non-competitive,"Cc1nnc(NS(=O)(=O)c2ccc(NC(=O)c3cc(O)c(O)c(O)c3)cc2)s1 [8f, N-(sulfamethizole)-3,4,5-trihydroxybenzamide]",–
3870 ± 430,1.48,Non-competitive,"Cc1ccnc(NS(=O)(=O)c2ccc(NC(=O)c3cc(O)c(O)c(O)c3)cc2)n1 [8g, N-(sulfamerazine)-3,4,5-trihydroxybenzamide]",–
